In article PMC8510595, “Vanillin enones as selective inhibitors of the cancer associated carbonic anhydrase isoforms IX and XII. The out of the active site pocket for the design of selective inhibitors?” (Journal of Enzyme Inhibition and Medicinal Chemistry, 2021):
Read-outs that look alike come from different tables or passages of the source.

Tests used:
Experiment in all cases: stopped-flow CO2 hydration assay
Assay type in all cases: biochemical
hCA I = target: T1, hCA I (Homo sapiens, UniProt P00915); details: read-out: Ki (μM)^b / hCA I
T1 construct: gene CA1; recombinant, obtained in the authors' laboratory; cytosolic
T1 sequence (P00915 2-261): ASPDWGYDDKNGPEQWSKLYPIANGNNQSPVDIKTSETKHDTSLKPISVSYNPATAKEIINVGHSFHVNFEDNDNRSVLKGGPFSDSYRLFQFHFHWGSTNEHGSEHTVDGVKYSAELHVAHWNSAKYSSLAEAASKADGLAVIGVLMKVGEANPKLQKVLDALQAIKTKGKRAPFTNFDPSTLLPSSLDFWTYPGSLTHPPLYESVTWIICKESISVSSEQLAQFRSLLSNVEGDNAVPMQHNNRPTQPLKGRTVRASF

hCA XII = target: T2, hCA XII (Homo sapiens, UniProt O43570); details: read-out: Ki (μM)^b / hCA XII
T2 construct: gene CA12; recombinant, obtained in the authors' laboratory; transmembrane isoform
T2 sequence (O43570 25-354 limits assumed): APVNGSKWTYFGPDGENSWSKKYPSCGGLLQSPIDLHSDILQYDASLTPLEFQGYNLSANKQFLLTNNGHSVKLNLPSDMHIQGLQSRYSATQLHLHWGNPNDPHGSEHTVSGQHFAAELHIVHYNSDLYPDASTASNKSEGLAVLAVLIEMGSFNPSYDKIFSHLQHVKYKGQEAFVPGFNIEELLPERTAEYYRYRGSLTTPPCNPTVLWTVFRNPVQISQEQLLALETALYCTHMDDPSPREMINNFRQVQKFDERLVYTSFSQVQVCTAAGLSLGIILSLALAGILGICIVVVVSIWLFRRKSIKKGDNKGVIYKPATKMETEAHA

hCA II = target: T3, hCA II (Homo sapiens, UniProt P00918)
T3 construct: gene CA2; recombinant, obtained in the authors' laboratory; cytosolic

hCA IX = target: T4, hCA IX (Homo sapiens, UniProt Q16790); details: read-out: Ki (μM)^b / hCA IX
T4 construct: gene CA9; recombinant, obtained in the authors' laboratory; transmembrane isoform

SMILES	Ki (hCA I) [µM]	Ki (hCA XII) [µM]	Ki (hCA II; read-out: Ki (μM)^b / hCA I) [µM]	Ki (hCA IX) [µM]	Ki (hCA II; read-out: Ki (μM)^b / hCA II) [µM]
COc1cc(/C=C/C(=O)CC(C)C)ccc1O [compound 5, (E)-1–(4-Hydroxy-3-methoxyphenyl)-5-methylhex-1-en-3-one]	> 100	1.7	> 100	26.3	
COc1cc(/C=C/C(=O)C[C@@H]2O[C@H](CO)[C@@H](O)[C@H](O)[C@H]2O)ccc1O [compound 1, 1-(β-D-glucopyranosyl)-4–(4-hydroxy-3-methoxyphenyl)but-3-en-2-one]	71.6	4.8		30.8	> 100
COc1cc(/C=C/C(=O)c2ccccc2)ccc1O [compound 6, (E)-3–(4-Hydroxy-3-methoxyphenyl)-1-phenylprop-2-en-1-one]	76.3	0.63		29.1	96.4
COc1cc(/C=C/C(=O)C[C@@H]2O[C@H](CO)[C@H](O)[C@H](O)[C@H]2O)ccc1O [compound 2, 1-(β-D-galactopyranosyl)-4–(4-hydroxy-3-methoxyphenyl)but-3-en-2-one]	80.5	2.5		20.8	> 100
COc1cc(/C=C/C(=O)c2ccc(Br)cc2)ccc1O [compound 7, (E)-1–(4-Bromophenyl)-3–(4-hydroxy-3-methoxyphenyl)prop-2-en-1-one]	92.6	6.4		> 100	82
CCC(=O)/C=C/c1ccc(O)c(OC)c1 [compound 4, (E)-1–(4-Hydroxy-3-methoxyphenyl)pent-1-en-3-one]	> 100	2.5	> 100	32	
